Legend:
thistle (CIRAR) = assay: Postemergence greenhouse trial, % visual injury on thistle; format: in vivo, Cirsium arvense; conditions: for % visual injury, observed (Ob): CIRAR
How it was run: (§1)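 Plants at second or third true leaf stage, greenhouse-grown (14 h photoperiod, ~23/22° C.), sprayed postemergence with compounds alone or with safener cloquintocet-mexyl in 1.5% v/v Agri-dex crop oil at 187 L/ha. Visual injury scored 0–100% versus solvent-blank controls after 20-22 d; expected mixture effects by Colby's equation.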

winter rape (BRSNW) = assay: Postemergence greenhouse trial, % visual injury on winter rape; format: in vivo, Brassica napus; conditions: for % visual injury, observed (Ob): BRSNW
How it was run: as §1

[1] = tested on: purple deadnettle (LAMPU); assay: Postemergence greenhouse trial, % visual injury on purple deadnettle; format: in vivo, Lamium purpureum; conditions: for % visual injury, Ob: alone; for % visual injury, observed (Ob): LAMPU
Experimental: Seeds of the desired test plant species were planted in Sun Gro MetroMix® 306 planting mixture, which typically has a pH of 6.0 to 6.8 and an organic matter content of about 30 percent, in plastic pots with a surface area of 103.2 square centimeters (cm^2). When required to ensure good germination and healthy plants, a fungicide treatment and/or other chemical or physical treatment was applied. The plants were grown for 7-36 days (d) in a greenhouse with an approximate 14-hour (h) photoperiod which was maintained at about 23° C. during the day and 22° C. during the night. Nutrients and water were added on a regular basis and supplemental lighting was provided with overhead metal halide 1000-Watt lamps as necessary. The plants were employed for testing when they reached the second or third true leaf stage.
Weighed amounts of technical material were dissolved in a volume of 97:3 volume per volume (v/v) acetone/dimethyl sulfoxide (DMSO) to stock solutions. […] The concentrated stock solutions were diluted with an aqueous mixture of 1.5% v/v of Agri-dex crop oil concentrate to provide the appropriate application rates. Compound requirements are based upon a 12 milliliter (mL) application volume at a rate of 187 liters per hectare (L/ha). Stocks solutions of the safeners were prepared following the same procedure. Spray solutions of the safeners and experimental compound mixtures were prepared by adding the stock solutions to the appropriate amount of dilution solution to form a 12 mL spray solution in two-way combinations. Formulated compounds were applied to the plant material with an overhead Mandel track sprayer equipped with 8002E nozzles calibrated to deliver 187 L/ha over an application area of 0.503 square meters (m^2) at a spray height of 18 inches (43 centimeters (cm)) above average plant canopy. Control plants were sprayed in the same manner with the solvent blank. All herbicide application (component a) rates are in g ae/ha and all safener (component b) rates are in g ai/ha.
The treated plants and control plants were placed in a greenhouse as described above and watered by sub-irrigation to prevent wash-off of the test compounds. After 20-22 d, the condition of the test plants as compared with that of the control plants was determined visually and scored on a scale of 0 to 100 percent where 0 corresponds to no injury and 100 corresponds to complete kill. […] Colby's equation was used to determine the herbicidal effects expected from the mixtures. […]

[2] = tested on: bird's-eye speedwell (VERPE); assay: Postemergence greenhouse trial, % visual injury on bird's-eye speedwell; format: in vivo, Veronica persica; conditions: for % visual injury, Ob: alone; for % visual injury, observed (Ob): VERPE
How it was run: (§2)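 Herbicide rates g ae/ha, safener (cloquintocet-mexyl) rates g ai/ha; spray carrier 1.5% v/v crop oil concentrate, 187 L/ha, 2nd–3rd leaf stage. Rating: visual % injury at 20-22 d.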

spring wheat (TRZAS) = assay: Postemergence greenhouse trial, % visual injury on spring wheat; format: in vivo, Triticum aestivum; conditions: alone
How it was run: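 Postemergence greenhouse spray (187 L/ha, 1.5% v/v Agri-dex in water, acetone/DMSO stocks) on plants at second–third true leaf stage, ~23/22 °C, 14 h photoperiod; herbicides in g ae/ha, safener cloquintocet-mexyl in g ai/ha. Visual injury 0–100% versus solvent-blank controls after 20–22 d; Colby's equation gave expected mixture effects.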

common poppy (PAPRH) = assay: Postemergence greenhouse trial, % visual injury on common poppy; format: in vivo, Papaver rhoeas; conditions: for % visual injury, observed (Ob): PAPRH
How it was run: as §2

[3] = Cirsium arvense, post-emergence, alone, read-out: % visual injury, Ob
[4] = Brassica napus, post-emergence, alone, read-out: % visual injury, Ob
[5] = compound 2 4.380 + CQC-m 0 g/ha

SMILES: Nc1c(F)c(-c2ccc3cc[nH]c3c2F)nc(C(=O)O)c1Cl [compound 1]
- pest or weed control at 4.375 g/ha (thistle (CIRAR); Cirsium arvense, post-emergence, alone, 4.375 g/ha, read-out: % visual injury, Ob): 35%
- pest or weed control at 8.75 g/ha (thistle (CIRAR); Cirsium arvense, post-emergence, alone, 8.75 g/ha, read-out: % visual injury, Ob): 62%
- pest or weed control at 17.5 g/ha (thistle (CIRAR); Cirsium arvense, post-emergence, alone, 17.5 g/ha, read-out: % visual injury, Ob): 80%
- pest or weed control at 35 g/ha (thistle (CIRAR); [3]): 90%
- pest or weed control at 70 g/ha (thistle (CIRAR); Cirsium arvense, post-emergence, alone, 70 g/ha, read-out: % visual injury, Ob): 96%
- plant injury at 4.375 g/ha (winter rape (BRSNW); Brassica napus, post-emergence, alone, 4.375 g/ha, read-out: % visual injury, Ob): 79%
- plant injury at 8.75 g/ha (winter rape (BRSNW); Brassica napus, post-emergence, alone, 8.75 g/ha, read-out: % visual injury, Ob): 84%
- plant injury at 17.5 g/ha (winter rape (BRSNW); Brassica napus, post-emergence, alone, 17.5 g/ha, read-out: % visual injury, Ob): 96%
- plant injury at 35 g/ha (winter rape (BRSNW); [4]): 99%
- plant injury at 70 g/ha (winter rape (BRSNW); Brassica napus, post-emergence, alone, 70 g/ha, read-out: % visual injury, Ob): 100%
- % visual injury, Ob ([1]; 4.375 g/ha): 76%
- % visual injury, Ob ([1]; 8.75 g/ha): 86%
- % visual injury, Ob ([1]; 17.5 g/ha): 90%
- % visual injury, Ob ([1]; 35 g/ha): 98%
- % visual injury, Ob ([1]; 70 g/ha): 100%
- % visual injury, Ob ([2]; 4.375 g/ha): 93%
- % visual injury, Ob ([2]; 8.75 g/ha): 95%
- % visual injury, Ob ([2]; 17.5 g/ha): 98%
- % visual injury, Ob ([2]; 35 g/ha): 99%
- % visual injury, Ob ([2]; 70 g/ha): 99%
- % visual injury, Ob (spring wheat (TRZAS); 4.375 g/ha): 13%
- % visual injury, Ob (spring wheat (TRZAS); 8.75 g/ha): 16%
- % visual injury, Ob (spring wheat (TRZAS); 17.5 g/ha): 31%
- % visual injury, Ob (spring wheat (TRZAS); 35 g/ha): 39%
- % visual injury, Ob (spring wheat (TRZAS); 70 g/ha): 51%
- pest or weed control at 4.375 g/ha (common poppy (PAPRH); Papaver rhoeas, post-emergence, alone, 4.375 g/ha, read-out: % visual injury, Ob): 97%
- pest or weed control at 8.75 g/ha (common poppy (PAPRH); Papaver rhoeas, post-emergence, alone, 8.75 g/ha, read-out: % visual injury, Ob): 99%
- pest or weed control at 17.5 g/ha (common poppy (PAPRH); Papaver rhoeas, post-emergence, alone, 17.5 g/ha, read-out: % visual injury, Ob): 100%
- pest or weed control at 35 g/ha (common poppy (PAPRH); Papaver rhoeas, post-emergence, alone, 35 g/ha, read-out: % visual injury, Ob): 100%
- pest or weed control at 70 g/ha (common poppy (PAPRH); Papaver rhoeas, post-emergence, alone, 70 g/ha, read-out: % visual injury, Ob): 100%

SMILES: Nc1c(F)c(-c2ccc3cc[nH]c3c2F)nc(C(=O)OCc2ccccc2)c1Cl [compound 2]
- % visual injury, observed (Ob) (thistle (CIRAR); [5]): 35%
- % visual injury, observed (Ob) (thistle (CIRAR); compound 2 8.75 + CQC-m 0 g/ha): 63%
- % visual injury, observed (Ob) (thistle (CIRAR); compound 2 17.5 + CQC-m 0 g/ha): 80%
- % visual injury, observed (Ob) (thistle (CIRAR); compound 2 35 + CQC-m 0 g/ha): 99%
- % visual injury, observed (Ob) (thistle (CIRAR); compound 2 70 + CQC-m 0 g/ha): 99%
- pest or weed control at 35 g/ha (thistle (CIRAR); [3]): 70%
- % visual injury, observed (Ob) (winter rape (BRSNW); [5]): 84%
- % visual injury, observed (Ob) (winter rape (BRSNW); compound 2 8.75 + CQC-m 0 g/ha): 88%
- % visual injury, observed (Ob) (winter rape (BRSNW); compound 2 17.5 + CQC-m 0 g/ha): 55%
- % visual injury, observed (Ob) (winter rape (BRSNW); compound 2 35 + CQC-m 0 g/ha): 100%
- % visual injury, observed (Ob) (winter rape (BRSNW); compound 2 70 + CQC-m 0 g/ha): 100%
- plant injury at 35 g/ha (winter rape (BRSNW); [4]): 100%
- % visual injury, observed (Ob) [1, 5]: 85%
- % visual injury, observed (Ob) ([1]; compound 2 8.75 + CQC-m 0 g/ha): 93%
- % visual injury, observed (Ob) ([1]; compound 2 17.5 + CQC-m 0 g/ha): 95%
- % visual injury, observed (Ob) ([1]; compound 2 35 + CQC-m 0 g/ha): 100%
- % visual injury, observed (Ob) ([1]; compound 2 70 + CQC-m 0 g/ha): 100%
- % visual injury, observed (Ob) [2, 5]: 75%
- % visual injury, observed (Ob) ([2]; compound 2 8.75 + CQC-m 0 g/ha): 95%
- % visual injury, observed (Ob) ([2]; compound 2 17.5 + CQC-m 0 g/ha): 100%
- % visual injury, observed (Ob) ([2]; compound 2 35 + CQC-m 0 g/ha): 100%
- % visual injury, observed (Ob) ([2]; compound 2 70 + CQC-m 0 g/ha): 100%
- % visual injury, Ob (spring wheat (TRZAS); 35 g/ha): 15%
- % visual injury, observed (Ob) (common poppy (PAPRH); [5]): 93%
- % visual injury, observed (Ob) (common poppy (PAPRH); compound 2 8.75 + CQC-m 0 g/ha): 100%
- % visual injury, observed (Ob) (common poppy (PAPRH); compound 2 17.5 + CQC-m 0 g/ha): 100%
- % visual injury, observed (Ob) (common poppy (PAPRH); compound 2 35 + CQC-m 0 g/ha): 100%
- % visual injury, observed (Ob) (common poppy (PAPRH); compound 2 70 + CQC-m 0 g/ha): 100%

From US9763445B2, “Safened herbicidal compositions comprising a pyridine carboxylic acid herbicide” (Dow AgroSciences, LLC, priority 2014, dated 2017)
